According to US20260294915A1, “COMBINATION THERAPY COMPRISING A MAT2A INHIBITOR AND A TOPOISOMERASE INHIBITOR, A SPLICING INHIBITOR SULFONAMIDE, OR A KIF18 INHIBITOR” (IDEAYA BIOSCIENCES, INC., priority 2023, published 2026):

Columns and labels:
Format in all cases: cell-based
NCI-H838 = assay: 10-day proliferation (CTG), equimolar Compound A + Compound B (Example 1); conditions: Homo sapiens, NCI-H838, 240 h, 10 days, single agent or 1:1 combo; for IC30: read-out: gIC30; for IC40: read-out: gIC40; for IC50: read-out: gIC50; for IC60: read-out: gIC60; for IC70: read-out: gIC70; for IC80: read-out: gIC80; for IC90: read-out: gIC90; for IC100: read-out: gIC100
Method: (§1) A 10-day proliferation assay was performed in a panel of 5 MTAP-deficient and 2 wild type non-small cell lung and bladder cancer cell lines. Optimal cell seeding for all cell lines was determined by assessing the growth over a range of seeding densities in a 384-well format to identify conditions that permitted proliferation for 10 days. Cells were then plated at the optimal seeding density and treated with 20-point, two-fold dilution series of Compound A, sovilnesib (“Compound B”), or an equimolar combination of Compound A and Compound B. Concentrations tested for Compound A and Compound B alone or in combination ranged from 0.038 nM to 20,000 nM. A plate of cells was harvested at the time of compound addition to quantify the number of cells at the start of the combination (T0). For cell quantification, the harvested cells were lysed with Promega CellTiter-Glo (CTG) reagent according to the manufacturer's protocol and the chemiluminescent signal was detected on a Synergy Neo plate reader. CTG estimates cell number through detection of cellular ATP levels. Cells were incubated with the drug combinations at 37° C. with 5% CO2 for 10 days. Cells were then lysed with CTG and the chemiluminescent signal was measured.
(§2) CTG values obtained after the 10-day treatment were background subtracted and expressed as a percent of the T0 value. Data were plotted against compound concentration and fit with a four-parameter equation to generate dose response curves for each single agent and the equimolar combination. Growth ICx (gICx) values ranging from gIC30 to gIC100 were interpolated from the fitted curves. Synergistic growth inhibition was assessed by determination of Combination Index (CI) values at these various points across the titration using the mutually non-exclusive equation [Chou, 1983; Chou, 1981] shown below where A equals the gIC value of Compound A, B equals the gICx value of Compound B, and A+B or B+A equals the gICx value of the equimolar combination. A Combination Index value less than 1.0 was considered synergistic.
(§3) Synergy was measured for equimolar combinations of Compound A and Compound B utilizing the mutually non-exclusive Combination Index equation across gICx values ranging from gIC30-gIC100. Combination Index values are shown for: NCI-H838 (3A), SW900 (3B), RT112/84 (3C), UMUC5 (3D), and UMUC11 (3E).

UMUC11 = assay: as above; conditions: 240 h, 10 days, single agent or 1:1 combo; for IC30: read-out: gIC30; for IC40: read-out: gIC40; for IC50: read-out: gIC50; for IC60: read-out: gIC60; for IC70: read-out: gIC70; for IC80: read-out: gIC80; for IC90: read-out: gIC90; for IC100: read-out: gIC100
Method: as §1, §2, §3

UMUC5 = assay: as above; conditions: 240 h, 10 days, single agent or 1:1 combo; for IC30: read-out: gIC30; for IC40: read-out: gIC40; for IC50: read-out: gIC50; for IC60: read-out: gIC60; for IC70: read-out: gIC70; for IC80: read-out: gIC80; for IC90: read-out: gIC90; for IC100: read-out: gIC100
Method: as §1, §2, §3

NCI-H520 = assay: 10-day proliferation (CTG), Compound B titration + 1000 nM Compound A, Bliss (Example 2); set-up: key: GDI on scale −100 to 100; 0 = cell number at T0
Method: (§4) A 10-day proliferation assay was performed in a panel of 5 MTAP-deficient and 2 wild type non-small cell lung and bladder cancer cell lines. Optimal cell seeding for all cell lines was determined by assessing the growth over a range of seeding densities in a 384-well format to identify conditions that permitted proliferation for 10 days. Cells were then plated at the optimal seeding density and treated with 20-point, two-fold dilution series of Compound B in combination with a 1000 nM fixed concentration of Compound A. Single agent titrations for Compound A and Compound B were included for comparison. Concentrations tested for Compound A and Compound B alone or in combination ranged from 0.038 nM to 20,000 nM. A plate of cells was harvested at the time of compound addition to quantify the number of cells at the start of the combination (T0). For cell quantification, the harvested cells were lysed with Promega CellTiter-Glo (CTG) reagent according to the manufacturer's protocol and the chemiluminescent signal was detected as described in Example 1 above. Cells were incubated with the drug combinations at 37° C. with 5% CO2 for 10 days. Cells were then lysed with CTG and the chemiluminescent signal was measured.
(§5) CTG values obtained after the 10-day treatment were background subtracted and expressed as a percent of the T0 value set at 100%. Data were plotted against compound concentration and fit with a four-parameter equation to generate single agent dose response curves. Percent inhibition was determined for each combination and single agent concentration compared to a DMSO control. In addition, the overall net growth or death of the cells was calculated and reported as a growth death index (GDI) value on a scale of −100 to 100 with the midpoint (0) being the number of cells at the beginning of the combination (T0).
(§6) Synergistic growth inhibition was assessed using the Bliss Independence model for each point of the Compound B titration in combination with 1000 nM Compound A. The observed growth inhibition at each point was compared to the predicted inhibition based on the additive activity of each single agent. Predicted inhibition was calculated using (Ea+Eb)−(Ea*Eb) where E equals the effect (inhibition) of each single agent (a and b). A difference between the observed inhibition percentage and the predicted inhibition percentage greater than 10% was considered synergistic. A Bliss score was only calculated for combinations eliciting >20% growth inhibition (GDI value <80). Since Bliss is calculated based on growth inhibition, scores within cytotoxic dose ranges may not accurately reflect synergistic cytotoxicity.
(§7) Synergy was measured across the Compound B titration with 1000 nM Compound A by Bliss Independence analysis. Bliss scores >10 are indicated by “*” and are considered synergistic. […] Synergy as reported using Bliss may be underrepresented within cytotoxic dose ranges. Growth death index values are shown for the combination titration and each single agent Compound A (Cmpd A) and Compound B (Cmpd B) on a scale of −100 to 100 with the midpoint (0) being the number of cells at the beginning of the combination (T0). Bliss and GDI values are shown for five MTAP-deficient cell lines: NCI-1H520 (6A), TCCSUP (6B).

TCCSUP = assay: as above; set-up: key: GDI on scale −100 to 100; 0 = cell number at T0
Method: as §4, §5, §6, §7

[1] = Cmpd B 0.04 nM, combo: + 1000 nM Cmpd A
[2] = Cmpd B 0.1 nM, combo: + 1000 nM Cmpd A
[3] = Cmpd B 0.2 nM, combo: + 1000 nM Cmpd A
[4] = Cmpd B 0.3 nM, combo: + 1000 nM Cmpd A
[5] = Cmpd B 0.6 nM, combo: + 1000 nM Cmpd A
[6] = Cmpd B 1.2 nM, combo: + 1000 nM Cmpd A
[7] = Cmpd B 2.4 nM, combo: + 1000 nM Cmpd A
[8] = Cmpd B 4.9 nM, combo: + 1000 nM Cmpd A
[9] = Cmpd B 9.8 nM, combo: + 1000 nM Cmpd A
[10] = Cmpd B 19.5 nM, combo: + 1000 nM Cmpd A
[11] = Cmpd B 39.1 nM, combo: + 1000 nM Cmpd A
[12] = Cmpd B 78.1 nM, combo: + 1000 nM Cmpd A
[13] = Cmpd B 156.3 nM, combo: + 1000 nM Cmpd A
[14] = Cmpd B 312.5 nM, combo: + 1000 nM Cmpd A
[15] = Cmpd B 625 nM, combo: + 1000 nM Cmpd A
[16] = Cmpd B 1250 nM, combo: + 1000 nM Cmpd A
[17] = Cmpd B 2500 nM, combo: + 1000 nM Cmpd A
[18] = Cmpd B 5000 nM, combo: + 1000 nM Cmpd A
[19] = Cmpd B 10000 nM, combo: + 1000 nM Cmpd A
[20] = Cmpd B 20000 nM, combo: + 1000 nM Cmpd A

In the case of `Nc1nc(=O)n(-c2ccccc2Cl)c2nc(C(F)(F)F)ccc12` [Compound A], the IC30 (NCI-H838) is reported as 0.052 µM, the IC40 (NCI-H838) is reported as 0.09 µM and the IC50 (NCI-H838) is reported as 0.208 µM. It also gave an IC60 (NCI-H838) of 20 µM, an IC70 (NCI-H838) of 20 µM and an IC80 (NCI-H838) of 20 µM. For the same compound, the IC90 (NCI-H838) was 20 µM, the IC100 (NCI-H838) was 20 µM and the IC30 (UMUC11) was 20 µM. For the same compound, the IC40 (UMUC11) was 20 µM, the IC50 (UMUC11) was 20 µM and the IC60 (UMUC11) was 20 µM. It also gave an IC70 (UMUC11) of 20 µM, an IC80 (UMUC11) of 20 µM and an IC90 (UMUC11) of 20 µM. It also gave an IC100 (UMUC11) of 20 µM, an IC30 (UMUC5) of 0.357 µM and an IC40 (UMUC5) of 1.35 µM. The IC50 (UMUC5) was 5.16 µM, the IC60 (UMUC5) was 19.4 µM and the IC70 (UMUC5) was 20 µM. For the same compound, the IC80 (UMUC5) was 20 µM, the IC90 (UMUC5) was 20 µM and the IC100 (UMUC5) was 20 µM. For the same compound, the GDI (NCI-H520; single agent, 1000 nM Cmpd A) was 100 and the GDI (TCCSUP; single agent, 1000 nM Cmpd A) was 88.
`Cc1cc(NC(=O)c2ccc(NS(=O)(=O)CCO)cc2N2CCC3(CC2)CC3)nc(N2CCC(F)(F)CC2)n1` [Compound B, N-(2-(4,4-difluoropiperidin-1-yl)-6-methylpyrimidin-4-yl)-4-((2-hydroxyethyl)sulfonamido)-2-(6-azaspiro[2.5]octan-6-yl)benzamide] was tested, and the IC30 (NCI-H838) was 0.735 µM, the IC40 (NCI-H838) was 1.48 µM and the IC50 (NCI-H838) was 12.5 µM. It also gave an IC60 (NCI-H838) of 14.3 µM, an IC70 (NCI-H838) of 17 µM and an IC80 (NCI-H838) of 20 µM. The IC90 (NCI-H838) was 20 µM, the IC100 (NCI-H838) was 20 µM and the IC30 (UMUC11) was 2.2 µM. For the same compound, the IC40 (UMUC11) was 3.48 µM, the IC50 (UMUC11) was 5.17 µM and the IC60 (UMUC11) was 7.3 µM. For the same compound, the IC70 (UMUC11) was 9.95 µM, the IC80 (UMUC11) was 13.2 µM and the IC90 (UMUC11) was 17.1 µM. For the same compound, the IC100 (UMUC11) was 20 µM, the IC30 (UMUC5) was 0.17 µM and the IC40 (UMUC5) was 0.194 µM. The IC50 (UMUC5) was 0.221 µM, the IC60 (UMUC5) was 0.253 µM and the IC70 (UMUC5) was 0.296 µM. For the same compound, the IC80 (UMUC5) was 0.37 µM, the IC90 (UMUC5) was 0.662 µM and the IC100 (UMUC5) was 20 µM. It also gave a GDI (NCI-H520; [1]) of 100, a GDI (NCI-H520; [2]) of 100 and a GDI (NCI-H520; [3]) of 100. It also gave a GDI (NCI-H520; [4]) of 100, a GDI (NCI-H520; [5]) of 100 and a GDI (NCI-H520; [6]) of 100. The GDI (NCI-H520; [7]) was 100, the GDI (NCI-H520; [8]) was 100 and the GDI (NCI-H520; [9]) was 100. The GDI (NCI-H520; [10]) was 100, the GDI (NCI-H520; [11]) was 100 and the GDI (NCI-H520; [12]) was 100. For the same compound, the GDI (NCI-H520; [13]) was 100, the GDI (NCI-H520; [14]) was 85 and the GDI (NCI-H520; [15]) was 77. For the same compound, the GDI (NCI-H520; [16]) was 92, the GDI (NCI-H520; [17]) was 92 and the GDI (NCI-H520; [18]) was 61. For the same compound, the GDI (NCI-H520; [19]) was 17, the GDI (NCI-H520; [20]) was −57 and the GDI (TCCSUP; [1]) was 100. It also gave a GDI (TCCSUP; [2]) of 100, a GDI (TCCSUP; [3]) of 100 and a GDI (TCCSUP; [4]) of 100. For the same compound, the GDI (TCCSUP; [5]) was 100, the GDI (TCCSUP; [6]) was 100 and the GDI (TCCSUP; [7]) was 100. It also gave a GDI (TCCSUP; [8]) of 100, a GDI (TCCSUP; [9]) of 100 and a GDI (TCCSUP; [10]) of 100. The GDI (TCCSUP; [11]) was 100, the GDI (TCCSUP; [12]) was 76 and the GDI (TCCSUP; [13]) was 38. The GDI (TCCSUP; [14]) was 15, the GDI (TCCSUP; [15]) was 8 and the GDI (TCCSUP; [16]) was 10. For the same compound, the GDI (TCCSUP; [17]) was 11, the GDI (TCCSUP; [18]) was 6 and the GDI (TCCSUP; [19]) was −5. It also gave a GDI (TCCSUP; [20]) of −95.
